Results as given in patent US8802597B2, “Herbicidal pyrimidines” (E I du Pont de Nemours and Company, priority 2003, dated 2014).

Key:
Assay in all cases: Test J mixtures of compound 58 with azimsulfuron, flooded paddy
Type in all cases: in vivo
Conditions in all cases: 21 days, scale 0-100
[1] = system: purple redstem (AMMCO; Ammannia coccinea)
Excerpt: (§1) This test evaluated the effect of mixtures of compound 58 with azimsulfuron on several plant species. Three plastic pots (ca. 16-cm diameter) per rate were partially filled with sterilized Tama silt loam soil comprising a 35:50:15 ratio of sand, silt and clay and 2.6% organic matter. Separate plantings for each of the three pots were as follows. Seeds from the U.S. of ducksalad (HETLI; Heteranthera limosa), smallflower umbrella sedge (CYPDI; Cyperus difformis) and purple redstem (AMMCO; Ammannia coccinea), were planted into one 16-cm pot for each rate. Seeds from the U.S. of bearded sprangletop (LEFUF; Leptochloa fusca ssp. fascicularis), one stand of 9 or 10 water-seeded rice seedlings (ORYSW; Oryza sativa cv. ‘Japonica-M202’), and one stand of 6 transplanted rice seedlings (ORYSP; Oryza sativa cv. ‘Japonica-M202’) were planted into one 16-cm pot for each rate. Seeds from the U.S. of barnyardgrass (ECHCG; Echinochloa crus-galli), late watergrass (ECOR2; Echinochloa oryzicola), early watergrass (ECHOR; Echinochloa oryzoides) and junglerice (ECHCO; Echinochloa colona) were planted into one 16-cm pot for each rate. Plantings were sequential so that crop and weed species were at the 2.0 to 2.5-leaf stage at time of treatment.
(§2) Potted plants were grown in a greenhouse with day/night temperature settings of 29.5/26.7° C., and supplemental balanced lighting was provided to maintain a 16-hour photoperiod. Test pots were maintained in the greenhouse until test completion.
(§3) At time of treatment, test pots were flooded to 3 cm above the soil surface and then treated by application directly to the paddy water of test compounds formulated in a non-phytotoxic solvent mixture which included a surfactant. The pots were maintained at the 3-cm water depth for the duration of the test. Treatments consisted of compound 58 and azimsulfuron alone and in combination. Effects of treatments on rice and weeds were visually evaluated by comparison to untreated controls after 21 days. Plant response ratings were calculated as the means of the three replicates and are summarized in Table J. The ratings are based on a scale of 0 to 100 where 0 is no effect and 100 is complete control. A dash (-) response means no test result. Colby's Equation was used to determine the herbicidal effects expected from the mixtures.

[2] = system: smallflower umbrella sedge (CYPDI; Cyperus difformis)
Excerpt: as §1, §2, §3

[3] = system: transplanted rice seedlings (ORYSP; Oryza sativa cv. ‘Japonica-M202’)
Excerpt: as §1, §2, §3

[4] = system: junglerice (ECHCO; Echinochloa colona)
Excerpt: as §1, §2, §3

[5] = system: early watergrass (ECHOR; Echinochloa oryzoides)
Excerpt: as §1, §2, §3

[6] = system: bearded sprangletop (LEFUF; Leptochloa fusca ssp. fascicularis)
Excerpt: as §1, §2, §3

[7] = system: water-seeded rice seedlings (ORYSW; Oryza sativa cv. ‘Japonica-M202’)
Excerpt: as §1, §2, §3

[8] = system: ducksalad (HETLI; Heteranthera limosa)
Excerpt: as §1, §2, §3

[9] = system: barnyardgrass (ECHCG; Echinochloa crus-galli)
Excerpt: as §1, §2, §3

[10] = system: late watergrass (ECOR2; Echinochloa oryzicola)
Excerpt: as §1, §2, §3

COc1cc(OC)nc(NC(=O)NS(=O)(=O)c2c(-c3nnn(C)n3)cnn2C)n1 [Azimsulfuron]
AMMCO Obsd. ([1]; Azimsulfuron 2 g a.i./ha alone): 0 | AMMCO Obsd. ([1]; Azimsulfuron 4 g a.i./ha alone): 0 | AMMCO Obsd. ([1]; Azimsulfuron 8 g a.i./ha alone): 95 | CYPDI Obsd. ([2]; Azimsulfuron 2 g a.i./ha alone): 95 | CYPDI Obsd. ([2]; Azimsulfuron 4 g a.i./ha alone): 100 | CYPDI Obsd. ([2]; Azimsulfuron 8 g a.i./ha alone): 100 | ORYSP Obsd. ([3]; Azimsulfuron 2 g a.i./ha alone): 0 | ORYSP Obsd. ([3]; Azimsulfuron 4 g a.i./ha alone): 0 | ORYSP Obsd. ([3]; Azimsulfuron 8 g a.i./ha alone): 0 | ECHCO Obsd. ([4]; Azimsulfuron 2 g a.i./ha alone): 0 | ECHCO Obsd. ([4]; Azimsulfuron 4 g a.i./ha alone): 0 | ECHCO Obsd. ([4]; Azimsulfuron 8 g a.i./ha alone): 40 | ECHOR Obsd. ([5]; Azimsulfuron 2 g a.i./ha alone): 0 | ECHOR Obsd. ([5]; Azimsulfuron 4 g a.i./ha alone): 0 | ECHOR Obsd. ([5]; Azimsulfuron 8 g a.i./ha alone): 40 | LEFUF Obsd. ([6]; Azimsulfuron 2 g a.i./ha alone): 0 | LEFUF Obsd. ([6]; Azimsulfuron 4 g a.i./ha alone): 0 | LEFUF Obsd. ([6]; Azimsulfuron 8 g a.i./ha alone): 0 | ORYSW Obsd. ([7]; Azimsulfuron 2 g a.i./ha alone): 0 | ORYSW Obsd. ([7]; Azimsulfuron 4 g a.i./ha alone): 0 | ORYSW Obsd. ([7]; Azimsulfuron 8 g a.i./ha alone): 10 | HETLI Obsd. ([8]; Azimsulfuron 2 g a.i./ha alone): 30 | HETLI Obsd. ([8]; Azimsulfuron 4 g a.i./ha alone): 30 | HETLI Obsd. ([8]; Azimsulfuron 8 g a.i./ha alone): 100 | ECHCG Obsd. ([9]; Azimsulfuron 2 g a.i./ha alone): 0 | ECHCG Obsd. ([9]; Azimsulfuron 4 g a.i./ha alone): 0 | ECHCG Obsd. ([9]; Azimsulfuron 8 g a.i./ha alone): 30 | ECOR2 Obsd. ([10]; Azimsulfuron 2 g a.i./ha alone): 0 | ECOR2 Obsd. ([10]; Azimsulfuron 4 g a.i./ha alone): 0 | ECOR2 Obsd. ([10]; Azimsulfuron 8 g a.i./ha alone): 50
